According to the supplement of paper PMC11061612:

Key:
Test in all cases: combination Emax (second highest fraction inhibited in the dose matrix, 72 h); higher = more inhibition; extreme values may be limits of the assay
[1] = tested on: BFTC-905 (Bladder Carcinoma)
Summary of the method: (§1)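 Cell lines grown in DMEM/F12 or RPMI with 10% FBS were plated in 1536-well plates and held 24 hours at 37°C, 5% CO2 before 72 hours of exposure to two-drug dose matrices, with DMSO typically at 0.2%. CellTiter-Glo 2.0 luminescence gave viability, which was converted to inhibition. Vehicle wells were set to 0 and blank wells to 1. Combination Emax is the second-highest inhibition in the matrix, and Bliss excess is the observed combination effect minus the expected EA + EB − EA·EB, where EA and EB are the single-agent effects.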

[2] = tested on: CAMA-1 (Breast Carcinoma)
Summary of the method: as §1

[3] = tested on: DND-41 (T-Lymphoblastic Leukemia)
Summary of the method: as §1

[4] = tested on: DiFi (Colorectal Carcinoma)
Summary of the method: as §1

[5] = tested on: EVSA-T (Breast Carcinoma)
Summary of the method: as §1

[6] = tested on: HL-60 (Acute Myeloid Leukemia)
Summary of the method: as §1

[7] = tested on: KYSE-180 (Esophageal Squamous Cell Carcinoma)
Summary of the method: as §1

[8] = tested on: L-540 (Hodgkin's Lymphoma)
Summary of the method: as §1

[9] = tested on: MFM-223 (Breast Carcinoma)
Summary of the method: as §1

[10] = tested on: MKN28 (Gastric Carcinoma)
Summary of the method: as §1

[11] = tested on: MOLT-16 (T-Lymphoblastic Leukemia)
Summary of the method: as §1

[12] = tested on: MS751 (Cervical Carcinoma)
Summary of the method: as §1

[13] = tested on: NCI-H2818 (Mesothelioma)
Summary of the method: as §1

[14] = tested on: SU-DHL-8 (B-Cell Non-Hodgkin's Lymphoma)
Summary of the method: as §1

[15] = tested on: SW837 (Colorectal Carcinoma)
Summary of the method: as §1

[16] = tested on: TC-71 (Ewing's Sarcoma)
Summary of the method: as §1

[17] = tested on: TE-6 (Esophageal Squamous Cell Carcinoma)
Summary of the method: as §1

[18] = tested on: TOV-112D (Ovarian Carcinoma)
Summary of the method: as §1

[19] = tested on: WIL2-NS (Non-Cancerous)
Summary of the method: as §1

[20] = tested on: WM-115 (Melanoma)
Summary of the method: as §1

| SMILES | combination Emax [1] | combination Emax [2] | combination Emax [3] | combination Emax [4] | combination Emax [5] | combination Emax [6] | combination Emax [7] | combination Emax [8] | combination Emax [9] | combination Emax [10] | combination Emax [11] | combination Emax [12] | combination Emax [13] | combination Emax [14] | combination Emax [15] | combination Emax [16] | combination Emax [17] | combination Emax [18] | combination Emax [19] | combination Emax [20] |
| --- | --- | --- | --- | --- | --- | --- | --- | --- | --- | --- | --- | --- | --- | --- | --- | --- | --- | --- | --- | --- |
| C[C@@H]1COCCN1c1cc(C2([S@](C)(=N)=O)CC2)nc(-c2ccnc3[nH]ccc23)n1 [AZD6738] + O=C(c1cc(Cc2n[nH]c(=O)c3ccccc23)ccc1F)N1CCN(C(=O)C2CC2)CC1 [Olaparib] (first compound max 10 µM, 7x7, partner max 10 µM) | 0.873 | 0.322 | 0.947 | 0.775 | 0.346 | 0.619 | 0.76 | 0.936 | 0.773 | 0.484 | 1 | 0.395 | 0.45 | 0.888 | 0.343 | 0.887 | 0.498 | 0.795 | 0.968 | 0.518 |
| Cc1cc2ncnn2cc1Nc1ncc2c(n1)n(C1CCOCC1)c(=O)n2C [AZD7648] + C=CCn1c(=O)c2cnc(Nc3ccc(N4CCN(C)CC4)cc3)nc2n1-c1cccc(C(C)(C)O)n1 [AZD1775] (first compound max 10 µM, partner max 1 µM) | 0.56 | 0.303 | 0.813 | 0.821 | 0.291 | 0.812 | 0.778 | 0.945 | 0.69 | 0.668 | 1 | 0.387 | 0.462 | 0.87 | 0.292 | 0.496 | 0.363 | 0.468 | 0.954 | 0.469 |
| Cc1cc2ncnn2cc1Nc1ncc2c(n1)n(C1CCOCC1)c(=O)n2C [AZD7648] + CCN(CCO)CCCOc1ccc2c(Nc3cc(CC(=O)Nc4cccc(F)c4)[nH]n3)ncnc2c1 [AZD2811] (first compound max 10 µM, 7x7, partner max 1 µM) | 0.54 | 0.28 | 0.236 | 0.584 | 0.327 | 0.865 | 0.207 | 0.504 | 0.298 | 0.309 | 1 | 0.453 | 0.434 | 0.245 | 0.192 | 0.793 | 0.313 | 0.458 | 0.215 | 0.42 |
| Cc1cc2ncnn2cc1Nc1ncc2c(n1)n(C1CCOCC1)c(=O)n2C [AZD7648] + CN(C)CCCOc1ccc(-c2ccc3ncc4c(c3c2)n(C2CCOCC2)c(=O)n4C)cn1 [AZD0156] (first compound max 10 µM, 7x7, partner max 1 µM) | 0.221 | 0.261 | 0.242 | 0.273 | 0.28 | 0.416 | 0.168 | 0.366 | 0.238 | 0.287 | 0.511 | 0.275 | 0.368 | 0.125 | 0.154 | 0.246 | 0.363 | 0.38 | 0.395 | 0.328 |
| Cc1cc2ncnn2cc1Nc1ncc2c(n1)n(C1CCOCC1)c(=O)n2C [AZD7648] + C[C@@H]1COCCN1C2=NC(=NC(=C2)C3(CC3)[S@](=N)(=O)C)C4=C5C=CNC5=NC=C4 [AZD6738] (first compound max 10 µM, 7x7, partner max 10 µM) | 0.804 | 0.393 | 0.894 | 0.842 | 0.323 | 0.834 | 0.867 | 0.951 | 0.832 | 0.514 | 1 | 0.296 | 0.43 | 0.899 | 0.39 | 0.835 | 0.553 | 0.685 | 0.979 | 0.571 |
| Cc1cc2ncnn2cc1Nc1ncc2c(n1)n(C1CCOCC1)c(=O)n2C [AZD7648] + O=C(c1cc(Cc2n[nH]c(=O)c3ccccc23)ccc1F)N1CCN(C(=O)C2CC2)CC1 [Olaparib] (first compound max 10 µM, 7x7, partner max 10 µM) | 0.178 | 0.109 | 0.26 | 0.258 | 0.253 | 0.228 | 0.0923 | 0.396 | 0.172 | 0.103 | 0.633 | 0.197 | 0.328 | 0.448 | 0.0487 | 0.6 | 0.328 | 0.353 | 0.461 | 0.229 |
